{"source": "ChEMBL document CHEMBL1137850", "about": "“Pyridoxine as a template for the design of antiplatelet agents” (2004)", "key": {"[1]": {"assay": "Percent reduction of collagen (5 ug/mL) induced platelet aggregation was determined at 0.5 mM concentration", "assay_type": "functional, Homo sapiens"}, "[2]": {"assay": "Percent reduction of thrombin receptor activating peptide (12 uM) induced platelet aggregation was determined at 0.5 mM concentration", "assay_type": "functional, Homo sapiens"}, "[3]": {"assay": "Percent reduction of collagen (1 ug/mL) induced platelet aggregation was determined at 0.5 mM concentration", "assay_type": "functional, Homo sapiens"}, "[4]": {"assay": "Percent reduction of ADP (4 uM) induced platelet aggregation was determined at 0.5 mM concentration", "assay_type": "functional, Homo sapiens"}, "Rattus norvegicus [5]": {"system": "Rattus norvegicus", "assay": "Percent reduction in infarct volume after treatment at 20.0 mg/kg dose", "assay_type": "functional"}, "Rattus norvegicus [6]": {"system": "Rattus norvegicus", "assay": "Percent reduction in infarct volume after treatment at 40.0 mg/kg dose", "assay_type": "functional"}, "[7]": {"assay": "Percent reduction of collagen (5 ug/mL) induced platelet aggregation was determined at 0.25 mM concentration", "assay_type": "functional, Homo sapiens"}, "[8]": {"assay": "Percent reduction of ADP (4 uM) induced platelet aggregation was determined at 0.25 mM concentration", "assay_type": "functional, Homo sapiens"}, "Rattus norvegicus [9]": {"system": "Rattus norvegicus", "assay": "Percent reduction in infarct size after bolus injection at 0.07 mol/kg dose", "assay_type": "functional"}, "[10]": {"assay": "Percent reduction of collagen (1 ug/mL) induced platelet aggregation was determined at 0.25 mM concentration", "assay_type": "functional, Homo sapiens"}, "Rattus norvegicus [11]": {"system": "Rattus norvegicus", "assay": "Percent reduction in infarct volume after treatment at 0.0 mg/kg dose", "assay_type": "functional"}, "[12]": {"assay": "Percent reduction of thrombin receptor activating peptide (12 uM) induced platelet aggregation was determined at 0.25 mM concentration", "assay_type": "functional, Homo sapiens"}, "Rattus norvegicus [13]": {"system": "Rattus norvegicus", "assay": "Percent reduction in infarct volume after treatment at 10.0 mg/kg dose", "assay_type": "functional"}, "Rattus norvegicus [14]": {"system": "Rattus norvegicus", "assay": "Percent reduction in infarct size after bolus injection at 0.1 mol/kg dose", "assay_type": "functional"}}, "note": "Values joined by “and” are separate entries in the source; they are usually repeats but may differ in a detail not shown here. Equal entries are not always repeated.", "data": [{"smiles": "Cc1ncc(CNC(=O)Nc2ccc(F)cc2)c(CO)c1O", "values": [{"measurement": "Reduction", "setting": "[1]", "result": 1, "unit": "%"}, {"measurement": "Reduction", "setting": "[2]", "result": 0, "unit": "%"}, {"measurement": "Reduction", "setting": "[3]", "result": 0, "unit": "%"}, {"measurement": "Reduction", "setting": "[4]", "result": 0, "unit": "%"}]}, {"smiles": "Cc1ncc(C/N=C(\\S)Nc2ccc(F)cc2)c(CO)c1O", "values": [{"measurement": "Reduction", "setting": "[1]", "result": 4, "unit": "%"}, {"measurement": "Reduction", "setting": "[2]", "result": 6, "unit": "%"}, {"measurement": "Reduction", "setting": "[3]", "result": 23, "unit": "%"}, {"measurement": "Reduction", "setting": "[4]", "result": 18, "unit": "%"}]}, {"smiles": "Cc1ncc(CNc2ccc(C(=N)N)cc2)c(CO)c1O", "values": [{"measurement": "Reduction", "setting": "[1]", "result": 24, "unit": "%"}, {"measurement": "Reduction", "setting": "[2]", "result": 88, "unit": "%"}, {"measurement": "Reduction", "setting": "[3]", "result": 10, "unit": "%"}, {"measurement": "Reduction", "setting": "[4]", "result": 79, "unit": "%"}]}, {"smiles": "Cc1ncc(Cn2cnnn2)c(CO)c1O", "values": [{"measurement": "Reduction", "setting": "[1]", "result": 0, "unit": "%"}, {"measurement": "Reduction", "setting": "[2]", "result": 7, "unit": "%"}, {"measurement": "Reduction", "setting": "[3]", "result": 6, "unit": "%"}, {"measurement": "Reduction", "setting": "[4]", "result": 4, "unit": "%"}]}, {"smiles": "Cc1ncc(Cn2nnc(N)n2)c(CO)c1O", "values": [{"measurement": "Reduction", "setting": "[1]", "result": 0, "unit": "%"}, {"measurement": "Reduction", "setting": "[2]", "result": 2, "unit": "%"}, {"measurement": "Reduction", "setting": "[3]", "result": 1, "unit": "%"}, {"measurement": "Reduction", "setting": "[4]", "result": 0, "unit": "%"}]}, {"smiles": "Cc1ncc(CNc2ccc(-c3ccc(C(=N)N)cc3)cc2)c(CO)c1O", "values": [{"measurement": "Reduction", "setting": "Rattus norvegicus [5]", "result": 26.5, "unit": "%"}, {"measurement": "Reduction", "setting": "[1]", "result": 30, "unit": "%"}, {"measurement": "Reduction", "setting": "Rattus norvegicus [6]", "result": 2.9, "unit": "%"}, {"measurement": "Reduction", "setting": "[7]", "result": 1, "unit": "%"}, {"measurement": "Reduction", "setting": "[3]", "result": 93, "unit": "%"}, {"measurement": "Reduction", "setting": "[8]", "result": 63, "unit": "%"}, {"measurement": "Reduction", "setting": "[4]", "result": "82% and 66%"}, {"measurement": "Reduction", "setting": "Rattus norvegicus [9]", "result": 30, "unit": "%"}, {"measurement": "Reduction", "setting": "[10]", "result": 41, "unit": "%"}, {"measurement": "Reduction", "setting": "Rattus norvegicus [11]", "result": 40, "unit": "%"}, {"measurement": "Reduction", "setting": "[12]", "result": 93, "unit": "%"}, {"measurement": "Reduction", "setting": "Rattus norvegicus [13]", "result": 30.5, "unit": "%"}]}, {"smiles": "Cc1ncc(Cn2ccnc2C)c(CO)c1O", "values": [{"measurement": "Reduction", "setting": "[1]", "result": 1, "unit": "%"}, {"measurement": "Reduction", "setting": "[2]", "result": 3, "unit": "%"}, {"measurement": "Reduction", "setting": "[3]", "result": 0, "unit": "%"}, {"measurement": "Reduction", "setting": "[4]", "result": 1, "unit": "%"}]}, {"smiles": "Cc1ncc(COP(=O)(O)O)c(C=O)c1O", "note": "[PYRIDOXAL PHOSPHATE ANHYDROUS]", "values": [{"measurement": "Reduction", "setting": "[1]", "result": 0, "unit": "%"}, {"measurement": "Reduction", "setting": "Rattus norvegicus [14]", "result": 31, "unit": "%"}, {"measurement": "Reduction", "setting": "[2]", "result": 0, "unit": "%"}, {"measurement": "Reduction", "setting": "[3]", "result": 0, "unit": "%"}, {"measurement": "Reduction", "setting": "[4]", "result": 0, "unit": "%"}]}, {"smiles": "Cc1ncc(CO)c(CO)c1O", "note": "[PYRIDOXINE]", "values": [{"measurement": "Reduction", "setting": "[1]", "result": 4, "unit": "%"}, {"measurement": "Reduction", "setting": "[2]", "result": 0, "unit": "%"}, {"measurement": "Reduction", "setting": "[3]", "result": 4, "unit": "%"}, {"measurement": "Reduction", "setting": "[4]", "result": 0, "unit": "%"}]}]}
